Measured values as given in patent publication US9321760B2 (Merck Patent GmbH, priority 2011, dated 2016).

Target: P70S6K (T412E mutant) (Homo sapiens (Human), UniProt P23443, T412E)
Assay: P70S6K enzyme assay
Assay type: biochemical
Conditions: 3 nM P70S6K T412E mutant, 24 μM ATP, 1 μM FITC-AHA-AKRRRLSSLRA-OH substrate peptide, 90 min at 25° C.
In short: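 P70S6K T412E mutant (3 nM) with 24 μM ATP and 1 μM FITC-labelled S6-derived peptide in Hepes pH 7.5, MgCl2, DTT, Brij buffer; 90 min at 25° C, stopped with EDTA. Phosphorylated product and substrate peptides separated by microfluidic mobility shift; IC50 values derived.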

Chain of P70S6K (T412E mutant) (P23443 whole entry T412E): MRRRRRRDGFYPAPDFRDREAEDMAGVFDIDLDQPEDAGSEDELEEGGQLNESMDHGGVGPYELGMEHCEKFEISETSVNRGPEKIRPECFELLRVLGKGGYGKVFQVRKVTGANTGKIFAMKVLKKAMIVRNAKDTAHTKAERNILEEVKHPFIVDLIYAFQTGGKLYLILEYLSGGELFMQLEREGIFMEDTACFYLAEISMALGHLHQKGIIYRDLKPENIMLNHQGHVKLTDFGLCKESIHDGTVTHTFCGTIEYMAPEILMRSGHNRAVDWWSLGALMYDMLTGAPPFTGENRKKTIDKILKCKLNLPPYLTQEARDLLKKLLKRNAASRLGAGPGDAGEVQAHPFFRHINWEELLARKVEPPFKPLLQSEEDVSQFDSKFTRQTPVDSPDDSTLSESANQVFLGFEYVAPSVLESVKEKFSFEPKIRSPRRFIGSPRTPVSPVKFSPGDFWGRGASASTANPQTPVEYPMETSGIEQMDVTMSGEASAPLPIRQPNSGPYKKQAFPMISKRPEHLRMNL

| Compound | IC50 |
| --- | --- |
| N#CC(c1ccc(F)c(C(F)(F)F)c1)N1CCN(c2ncnc(N)c2-c2ccc(F)cc2)CC1 (centres unmarked) [Example 154, {4-[6-Amino-5-(4-fluoro-phenyl)-pyrimidin-4-yl]-piperazin-1-yl}-(4-fluoro-3-trifluoromethyl-phenyl)-acetonitrile] | > 1000 nM |
| Nc1ncnc(N2CCN(C(CN3CCC3)c3ccc(F)c(C(F)(F)F)c3)CC2)c1-c1cn[nH]c1 (centres unmarked) [Example 101, 6-{4-[2-Azetidin-1-yl-1-(4-fluoro-3-trifluoromethyl-phenyl)-ethyl]-piperazin-1-yl}-5-(1H-pyrazol-4-yl)-pyrimidin-4-ylamine] | 3800 nM |
| Nc1ncnc(N2CCN(C(CN3CCCCC3)c3cccc(F)c3)CC2)c1-c1ccc(F)cc1 (centres unmarked) [Example 64, 5-(4-Fluorophenyl)-6{4-[1-(3-fluoro-phenyl)-2-piperidin-1-yl-ethyl]-piperazin-1-yl}-pyrimidin-4-ylamine] | 50 nM |
| Nc1ncnc(N2CCN(C(CN3CCC3)c3cccc(F)c3)CC2)c1-c1cn[nH]c1 (single isomer, unassigned) [Example 84, 6-{4-[2-Azetidin-1-yl-1-(3-fluoro-phenyl)-ethyl]-piperazin-1-yl}-5-(1H-pyrazol-4-yl)-pyrimidin-4-ylamine] | 15000 nM |
| Nc1ncnc(N2CCC(N)(C(=O)N[C@@H](CCO)c3ccc(F)cc3)CC2)c1Cl [Example 236, 4-Amino-1-(6-amino-5-chloro-pyrimidin-4-yl)-piperidine-4-carboxylic acid [(S)-1-(4-fluoro-phenyl)-3-hydroxy-propyl]-amide] | 900 nM |
| CS(=O)(=O)c1ccc(C(C#N)N2CCN(c3ncnc(N)c3-c3cn[nH]c3)CC2)cc1 (centres unmarked) [Example 184, 2-(4-(6-amino-5-(1H-pyrazol-4-yl)pyrimidin-4-yl)piperazin-1-yl)-2-(4-(methylsulfonyl)phenyl)acetonitrile] | > 1000 nM |
| Cc1ccc([C@H](CCO)NC(=O)C2(N)CCN(c3ncnc(N)c3Cl)CC2)cc1 [Example 237, 4-Amino-1-(6-amino-5-chloro-pyrimidin-4-yl)-piperidine-4-carboxylic acid ((S)-3-hydroxy-1-p-tolyl-propyl)-amide] | 860 nM |
| NCC(c1ccccc1)N1CCN(c2ncnc(N)c2Br)CC1 (centres unmarked) [Example 5, 6-[4-(2-Amino-1-phenyl-ethyl)-piperazin-1-yl]-5-bromo-pyrimidin-4-ylamine] | 330 nM |
| Nc1ncnc(N2CCN(C(CN3CCCC3)c3ccc(C(F)(F)F)cc3)CC2)c1-c1ccc(F)cc1 (centres unmarked) [Example 10, 5-(4-fluorophenyl)-6-(4-(2-(pyrrolidin-1-yl)-1-(4-(trifluoromethyl)-phenyl)-ethyl)-piperazin-1-yl)-pyrimidin-4-amine] | 31 nM |
| Nc1ncnc(N2CCN(Cc3cc(Cl)c(Cl)cc3OC3CNC3)CC2)c1-c1ccc(F)cc1 [Example 62, 6-(4-(2-(azetidin-3-yloxy)-4,5-dichlorobenzyl)piperazin-1-yl)-5-(4-fluorophenyl)pyrimidin-4-amine] | 980 nM |
| NC[C@H](c1ccc(Cl)nc1)N1CCN(c2ncnc(N)c2-c2ccc(F)cc2)CC1 [Example 176, 6-{4-[(S)-2-Amino-1-(6-chloro-pyridin-3-yl)-ethyl]-piperazin-1-yl}-5-(4-fluoro-phenyl)-pyrimidin-4-ylamine] | 0.8 nM |
| N#Cc1c(N)ncnc1N1CCC(N)(C(=O)N[C@@H](CCO)c2ccncc2)CC1 [Example 231, 4-Amino-1-(6-amino-5-cyano-pyrimidin-4-yl)-piperidine-4-carboxylic acid ((S)-3-hydroxy-1-pyridin-4-yl-propyl)-amide] | 3600 nM |
| NCC(c1cccc(F)c1)N1CCN(c2ncnc(N)c2-c2ccc(F)cc2)CC1 (centres unmarked) [Example 169, 6-{4-[2-Amino-1-(3-fluoro-phenyl)-ethyl]-piperazin-1-yl}-5-(4-fluoro-phenyl)-pyrimidin-4-ylamine] | 4.1 nM |
| CN(C)CC(c1ccc(C(F)(F)F)cc1)N1CCN(c2ncnc(N)c2-c2ccc(C(C)(C)O)cc2)CC1 (centres unmarked) [Example 22, 2-(4-(4-amino-6-(4-(2-(dimethylamino)-1-(4-(trifluoromethyl)phenyl)ethyl)-piperazin-1-yl)pyrimidin-5-yl)phenyl)propan-2-ol] | 20 nM |

More lines, in order of falling IC50, values ahead:

| IC50 | Compound |
| --- | --- |
| 41000 nM | NC(=O)c1c(N)ncnc1N1CCC(N)(C(=O)N[C@@H](CCO)c2ccc(C(F)(F)F)cc2)CC1 [Example 233, 4-Amino-6-{4-amino-4-[(S)-3-hydroxy-1-(4-trifluoromethyl-phenyl)-propylcarbamoyl]-piperidin-1-yl}-pyrimidine-5-carboxylic acid amide] |
| 3200 nM | N#Cc1c(N)ncnc1N1CCC(N)(C(=O)N[C@H](c2ccc(Cl)cc2)C(F)(F)F)CC1 [Example 220] |
| 1000 nM | Nc1ncnc(N2CCC(N)(CNC(=O)c3ccc(F)cc3F)C2)c1-c1ccc(N2CCNCC2)nc1 (centres unmarked) [Example 206, N-{3-Amino-1-[6-amino-5-(6-piperazin-1-yl-pyridin-3-yl)-pyrimidin-4-yl]-pyrrolidin-3-ylmethyl}-2,4-difluoro-benzamide] |
| 640 nM | Nc1ncnc(N2CCN(C(CN3CCCC3)c3ccc(F)cc3)CC2)c1Br (centres unmarked) [Example 77, 5-Bromo-6{4-[1-(4-fluorophenyl)-2-pyrrolidin-1-yl-ethyl]-piperazin-1-yl}-pyrimidin-4-ylamine] |
| 190 nM | COC(=O)c1ccc([C@H](CN2CCC2)N2CCN(c3ncnc(N)c3-c3ccc(F)cc3)CC2)cc1 [Example 111, 4-((R)-1-{4-[6-Amino-5-(4-fluoro-phenyl)-pyrimidin-4-yl]-piperazin-1-yl}-2-azetidin-1-yl-ethyl)-benzoic acid methyl ester] |
| 180 nM | CCc1c(N)ncnc1N1CCN(C(CN)c2ccc3c(c2)OCCO3)CC1 (centres unmarked) [Example 181, 6-{4-[2-Amino-1-(2,3-dihydro-benzo[1,4]dioxin-6-yl)-ethyl]-piperazin-1-yl}-5-ethyl-pyrimidin-4-ylamine] |
| 150 nM | Cn1ccc(-c2c(N)ncnc2N2CCN(C(CNC(C)(C)C(C)(C)O)c3ccc(C(F)(F)F)cc3)CC2)n1 (centres unmarked) [Example 44, 3-[2-{4-[6-Amino-5-(1-methyl-1H-pyrazol-3-yl)-pyrimidin-4-yl]-piperazin-1-yl}-2-(4-trifluoromethyl-phenyl)-ethylamino]-2,3-dimethyl-butan-2-ol] |
| 140 nM | NCC(c1ccc(C(F)(F)F)cc1)C1CCN(c2ncnc(N)c2-c2cnoc2)CC1 (centres unmarked) [Example 59, 6-(4-(2-amino-1-(4-(trifluoromethyl)phenyl)ethyl)piperidin-1-yl)-5-(isoxazol-4-yl)pyrimidin-4-amine] |
| 130 nM | N#CC(c1ccc(Cl)c(Cl)c1)N1CCN(c2ncnc(N)c2-c2ccc(F)cc2)CC1 (centres unmarked) [Example 156, {4-[6-Amino-5-(4-fluoro-phenyl)-pyrimidin-4-yl]-piperazin-1-yl}-(3,4-dichloro-phenyl)-acetonitrile] |
| 120 nM | Nc1ncnc(N2CCN(C(CN3CCCCC3)c3cccc(C(F)(F)F)c3)CC2)c1-c1ccc(F)cc1 (centres unmarked) [Example 65, 5-(4-Fluorophenyl)-6{4-[1-(3-trifluoro-phenyl)-2-piperidin-1-yl-ethyl]-piperazin-1-yl}-pyrimidin-4-ylamine] |
| 13 nM | NCC(c1cc(C(F)(F)F)ccc1F)N1CCN(c2ncnc(N)c2-c2ccc(F)cc2)CC1 (centres unmarked) [Example 192, 6-{4-[2-Amino-1-(2-fluoro-5-trifluoromethyl-phenyl)-ethyl]-piperazin-1-yl}-5-(4-fluoro-phenyl)-pyrimidin-4-ylamine] |
| 5.9 nM | Nc1ncnc(N2CC[C@](N)(CNC(=O)c3ccc(F)cc3F)C2)c1-c1ccc(F)cc1 (single isomer, unassigned) [Example 249] |
| 5.3 nM | NCC(c1ccc(C(F)(F)F)cc1)N1CCN(c2ncnc(N)c2C2=CCCCC2)CC1 (centres unmarked) [Example 24, 6-(4-(2-amino-1-(4-(trifluoromethyl)phenyl)ethyl)piperazin-1-yl)-5-(cyclohex-1-en-1-yl)pyrimidin-4-amine] |
| 4.6 nM | Nc1ncnc(N2CCC(C(O)c3ccc(F)cc3)CC2)c1-c1ccc(F)cc1 (centres unmarked) [Example 140] |
| 4.2 nM | Nc1ncnc(N2CCN(C(CN3CCC3)c3ccc(C(F)(F)F)cc3)CC2)c1-c1ccc(F)cc1 (centres unmarked) [Example 27, 6-(4-(2-(azetidin-1-yl)-1-(4-(trifluoromethyl)phenyl)ethyl)piperazin-1-yl)-5-(4-fluorophenyl)pyrimidin-4-amine] |
| 3.4 nM | NC[C@H](c1ccc(C(F)(F)F)cc1)N1CCN(c2ncnc(N)c2-c2cn[nH]c2)CC1 [Example 8, (S)-6-(4-(2-amino-1-(4-(trifluoromethyl)phenyl)ethyl)piperazin-1-yl)-5-(1H-pyrazol-4-yl)pyrimidin-4-amine] |
| 3.4 nM | NCC(c1ccc(C(F)(F)F)cc1)N1CCN(c2ncnc(N)c2C2=CCCC2)CC1 (centres unmarked) [Example 25, 6-(4-(2-amino-1-(4-(trifluoromethyl)phenyl)ethyl)piperazin-1-yl)-5-(cyclopent-1-en-1-yl)pyrimidin-4-amine] |
| 2.6 nM | NC[C@H](c1ccc(C(F)(F)F)cc1)N1CCN(c2ncnc(N)c2-c2ccc(F)cc2)CC1 [Example 3, 6-{4-[(S)-2-Amino-1-(4-trifluoromethyl-phenyl)-ethyl]-piperazin-1-yl}-5-(4-fluoro-phenyl)-pyrimidin-4-ylamine] |
